In experiment [1] the test system is LN229 MGMT− MMR− cells. The experiment is described as follows: Anticancer activity towards LN229 human brain glioblastoma cells (nuclei count after 120 hours). Type of experiment: cell-based. The settings on record: LN-229, LN229 quad cells, 200 μM to 0.1 uM. The protocol: (§1) Exemplary compounds were evaluated for activity against LN229 human brain glioblastoma cells. Experimental procedures and results are provided elsewhere herein.
(§2) LN229 quad cells were maintained in Dulbecco's Modified Eagle Medium (DMEM) supplemented with 10% fetal bovine serum. Cells were plated into sterile black with glass bottom 384-well plates (Cellvis) at a concentration of 1,000 cells/well (20 μL total volume) using a MultiDrop (Thermo Fisher). Then, assay plates were centrifuged at 300 rpm for 2 seconds and incubated overnight in a 37° C. 5% CO2 incubator. Compounds were prepared as 100 mM stocks in DMSO and stored protected from light at −20′C until use. Prior to compound addition, the stock solutions of compound were diluted two-fold serially in DMSO from 100 mM down to 0.05 mM in a 384-well Source plate. Vehicle control wells containing DMSO and positive control wells containing 10 mM bortezomib were also added to the Source plate. An aliquot in the amount of 40 nL of compound stock solution or DMSO vehicle was transferred from the source plate to the cell assay plate using an Echo Acoustic dispense (Beckman). Three replicate dilution curves of each compound were run on each assay plate. An aliquot in the amount of 120 nL of a 10 mM bortezomib solution was transferred to the positive control wells resulting in a final concentration of 60 μM. The final concentration of compounds ranged from 200 μM to 0.1 uM (12-point, 2-fold dilution dose response curve), and the final DMSO concentration was 0.2%.
(§3) Assay plates were centrifuged at 500 rpm for 2 seconds and incubated for 120 hours at 37° C. in a humidified 5% CO2 incubator. Following incubation, cells were fixed with 4% paraformaldehyde and stained with DAPI for nuclei visualization. The images were acquired on the InCell 2200 high content imager (GE, now […]), and quantified using InCell Analyzer image analysis software. Z prime factor, signal-to-background and coefficient of variation were calculated for each assays plate using mean and standard deviation values of the negative (vehicle) and positive (bortezomib) control wells to ensure assay robustness. Raw cell count data for test compounds was normalized to percent viability relative to the DMSO vehicle control. Data was plotted in GraphPad Prism using a variable slope 4-parameter fit.

Experiment [2] has as its system LN229 MGMT+ MMR+ cells. The experiment is described as above. In kind it is cell-based. The settings on record: LN-229, LN229 quad cells, 200 μM to 0.1 uM. The protocol: as §1, §2, §3
Experiment [3] concerns LN229 MGMT+ MMR− cells. The description is as above. The settings on record: LN-229, LN229 quad cells, 200 μM to 0.1 uM. Type of experiment: cell-based. The protocol:
as §1, §2, §3

Experiment [4] deals with LN229 MGMT− MMR+ cells. Described as above. The settings on record: LN-229, LN229 quad cells, 200 μM to 0.1 uM. Type of experiment: cell-based. The protocol:
as §1, §2, §3

Experiment [5] concerns LN229 MGMT− cells with shRNA targeting MSH6, MLH1, PMS2, or MSH3. The experiment is described as follows: Short-term cell viability assay in cells lacking other MMR proteins. In kind it is cell-based, human. An excerpt: FIGS. ZS3A-ZS3J. KL-50 (4a) is effective in TMZ (1a)-resistant cells lacking other MMR proteins. (FIG. ZS3A) Western blotting performed in LN229 MGMT+/− cells with stable expression of shRNA targeting MSH6, MLH1, PMS2, or MSH3 to confirm depletion of the shRNA targets. In shMSH6 cells, there is reduced expression of MSH2, and in shMLH1 cells, there is loss of PMS2, due to destabilization in the setting of loss of their heterodimeric partners. GAPDH serves as loading control. (FIG. ZS3B) (Table S1.) IC50 values derived from short-term viability assays in LN229 MGMT+/− cells lines, +/−shRNA, treated with TMZ (1a) or KL-50 (4a). aMGMT TI (therapeutic index)=IC50 (MGMT+/MMR+) divided by IC50 (MGMT−/MMR+). bMMR RI (resistance index)=IC50 (MGMT−/MMR−) divided by IC50 (MGMT−/MMR+). (FIG. ZS3C) Short-term viability assay curves for TMZ (1a) in LN229 MGMT+/−, MMR+/shMSH6 cells. (FIG. ZS3D) Short-term viability assay curves for KL-50 (4a) in LN229 MGMT+/−, MMR+/shMSH6 cells. (FIG. ZS3E) Short-term viability assay curves for TMZ (1a) in LN229 MGMT+/−, MMR+/shMLH1 cells. (FIG. ZS3F) Short-term viability assay curves for KL-50 (4a) in LN229 MGMT+/−, MMR+/shMLH1 cells. (FIG. ZS3G) Short-term viability assay curves for TMZ (1a) in LN229 MGMT+/−, MMR+/shPMS2 cells. […]
Short-term Cell Viability Assay. […] Cells were imaged on a Cytation 3 imaging reader (BioTek) and quantified using CellProfiler software.

Each structure is given as a SMILES string.

The term IC50 denotes the concentration needed to halve the response being measured. Read a low IC50 as greater potency in that assay. As for `CNC(=O)c1ncn2c(=O)n(CCF)nnc12` [Compound I-1, 3-(2-fluoroethyl)-N-methyl-4-oxo-3H,4H-imidazo[4,3-d][1,2,3,5]tetrazine-8-carboxamide], the IC50 in experiment [1] was < 10 µM; in experiment [2], > 80 µM; in experiment [3], > 80 µM; in experiment [4], 10 to 20 µM.
On to `NC(=O)c1ncn2c(=O)n(CCF)nnc12` [KL-50, 3-(2-fluoroethyl)-4-oxo-3H,4H-imidazo[4,3-d][1,2,3,5]tetrazine-8-carboxamide], for which the “activity in MGMT− cells lacking MSH6, MLH1, PMS2, or MSH3 (in words)” value in experiment [5] is on record as “confirmed the activity”.

The values are drawn from US20240400572A1, “COMPOUNDS AND METHODS FOR TREATING CANCERS THAT ARE MGMT DEFICIENT REGARDLESS OF MMR STATUS” (Yale University, priority 2021, published 2024).
